This assay deals with T1, STAT6 (Homo sapiens, UniProt P42226).
T1 construct: endogenous in cells; host or cells: MOLM-16, KU-812, SKNO1, MB231, L1236
T1 sequence (P42226 1-847): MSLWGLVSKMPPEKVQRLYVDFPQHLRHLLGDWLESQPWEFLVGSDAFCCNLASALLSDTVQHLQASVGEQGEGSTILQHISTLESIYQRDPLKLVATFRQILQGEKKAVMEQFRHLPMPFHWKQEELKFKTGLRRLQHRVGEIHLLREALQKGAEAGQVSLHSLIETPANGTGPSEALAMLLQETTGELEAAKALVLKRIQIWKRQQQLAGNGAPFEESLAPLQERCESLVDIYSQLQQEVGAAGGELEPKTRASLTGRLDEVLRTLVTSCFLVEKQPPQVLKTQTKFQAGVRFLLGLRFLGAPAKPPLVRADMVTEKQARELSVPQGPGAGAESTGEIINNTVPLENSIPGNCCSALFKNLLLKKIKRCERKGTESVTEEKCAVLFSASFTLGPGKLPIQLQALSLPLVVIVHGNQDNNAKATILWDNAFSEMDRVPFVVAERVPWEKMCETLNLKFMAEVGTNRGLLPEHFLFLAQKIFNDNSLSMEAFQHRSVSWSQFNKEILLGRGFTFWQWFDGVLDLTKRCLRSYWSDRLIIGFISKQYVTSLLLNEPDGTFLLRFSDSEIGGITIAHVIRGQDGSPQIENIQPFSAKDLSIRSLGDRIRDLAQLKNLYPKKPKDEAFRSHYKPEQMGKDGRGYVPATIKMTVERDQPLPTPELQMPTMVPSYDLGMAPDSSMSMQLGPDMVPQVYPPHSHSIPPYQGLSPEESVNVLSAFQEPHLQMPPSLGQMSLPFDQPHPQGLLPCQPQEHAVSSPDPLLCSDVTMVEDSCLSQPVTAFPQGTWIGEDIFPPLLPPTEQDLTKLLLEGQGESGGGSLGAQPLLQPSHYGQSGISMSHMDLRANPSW
In words: Immunoblotting (Western blot) analysis of STAT6 degradation efficiency of degraders in treated cells. Format: cell-based. The procedure: Evaluation of the degradation efficiency of degraders may be accomplished by immunoblotting analysis. The representative general protocol is the following:
Cells are maintained in the appropriate culture medium with 10% FBS at 37° C. and an atmosphere of 5% CO2. Cell lines are used within three months of thawing fresh vials. Cells are lysed 1× Cell Lysis Buffer (Cell Signaling Technology, #9803), resolved by SDS-PAGE NuPAGE gel (Thermo Fisher Scientific), and transferred to a PVDF membrane (Millipore). Membranes are blocked using Odyssey TBS Blocker Buffer (LI-COR). IRDye 680RD and 800CW Dye-labeled secondary antibodies (LI-COR) are used. The washed membranes are scanned using Odyssey CLx imager (LI-COR). The intensity of Western blot signaling is quantitated using the Odyssey software. Primary antibodies used are: STAT5 Rabbit mAb (Cell Signaling Technology, #94205), STAT6 Rabbit mAb (Cell Signaling Technology, #5397) and GAPDH mouse monoclonal antibody (Santa Cruz Biotechnology, sc-47724).
To evaluate the degradation efficiency of degraders, immunoblotting analysis was performed. The general protocol is the following.
About 1 million cells for each data point were treated with compounds at indicated concentrations and durations. Untreated and treated cells in cell culture medium were transferred into tubes, followed by centrifugation at 3,000 rpm and 4° C. for 6 min Supernatants were removed from tubes and radioimmunoprecipitation assay (RIPA) lysis buffer supplemented with 1% protease inhibitor cocktail (Fisher Scientific cat. PI87786) and phosphatase inhibitor (Roche cat. 04906837001) were added to tubes containing the remaining cell pellets. The tubes were then left on ice for 30 min and placed in a −80° C. freezer. Subsequently they were thawed in 37° C. water, then centrifuged at 14,000 rpm for 15 min and the cell lysates transferred to new tubes. The concentration of total proteins in each tube was calculated using the Pierce BCA protein Assay kit (cat. 23225). Based on the calculated protein concentration, cell lysates containing approximately the same amount of proteins were transferred to new tubes, then distilled water and 4× Protein Sample Loading Buffer for Western Blots (LI-COR cat. 928-40004) supplemented with 20% of mercaptoethanol (Sigma Aldrich cat. M6250) were added on ice. The cell lysates were then reduced and denatured at 95° C. for 5 min. From the tubes containing cell lysates an equal amount of protein samples (20-40 μg) was loaded into precast 8%, 10%, 4%-12%, or 4%-20% Tris-glycine gels (Novex) filled with Tris-glycine SDS running buffer. After the proteins were resolved, they were transferred onto Immobile-FL PVDF Membrane (Millipore Sigma cat. IPFL00010), using Mini Trans-Blot Electrophoretic Transfer Cell (Bio-Rad 1703930). The membranes were blocked with Intercept Blocking Buffer (LI-COR cat. 927-70001) in LI-COR Western Blot boxes for 1 h at rt. The membranes were washed with 1× Tris-buffered saline-Tween-20 (TBST, 1× solution was made from 20×TBST solution, ThermoFisher Scientific cat. 28360) for 5 min 4 times. The membranes were incubated overnight at 4° C. in Intercept Blocking Buffer supplemented with primary antibodies (normally antibody:buffer 1:1000) and Tween-20. The membranes were washed with TBST for 5 min 4 times and were incubated with Intercept Blocking Buffer supplemented with IRDye 800CE Secondary Antibodies, IRDye 680RD Secondary Antibodies (LI-COR biosciences), Tween-20, and 10% SDS solution, for 1 h at rt. The membranes were then washed with TBST for 5 min 4 times and rinsed with deionized water before drying and scanning with Odyssey Dlx Amazing System (LI-COR). The immunoblots were finally quantified by the software.
In general terms: Immunoblotting shows a protein as a band on a membrane.

Where [1] appears, read: MOLM-16 cells, class symbols, read-out: DC50 S6 MOLM-16.
Where [2] appears, read: L1236 cells, read-out: DC50 S6 L1236.

Where two headings read alike, the source gives them in different places.

Usually DC50 stands for the concentration at which degradation of the target reaches its halfway point. As to `Cc1cc([C@H](C(=O)N2C[C@H](O)C[C@H]2C(=O)N[C@@H](CC(=O)NCCCCCCCCNC(=O)CO[C@@H]2C[C@@H](C(=O)N(C)c3ccc(Br)cc3)N(C(=O)[C@@H](NC(=O)c3cc4cc(C(F)(F)P(=O)(O)O)ccc4s3)C(C)(C)C)C2)c2ccc(-c3scnc3C)cc2)C(C)C)on1` [Compound 423, ((2-(((S)-1-((2S,4R)-2-((4-bromophenyl)(methyl)carbamoyl)-4-(2-((8-((S)-3-((2S,4R)-4-hydroxy-1-((R)-3-methyl-2-(3-methylisoxazol-5-yl)butanoyl)pyrrolidine-2-carboxamido)-3-(4-(4-methylthiazol-5-yl)phenyl)propanamido)octyl)amino)-2-oxoethoxy)pyrrolidin-1-yl)-3,3-dimethyl-1-oxobutan-2-yl)carbamoyl)benzo[b]thiophen-5-yl)difluoromethyl)phosphonic acid], the DC50 under setting [1] was greater than 10 µM.

With `Cc1cc([C@H](C(=O)N2C[C@H](O)C[C@H]2C(=O)N[C@@H](CC(=O)NCCOCCOCCNC(=O)CO[C@@H]2C[C@@H](C(=O)N(C)c3ccc(Br)cc3)N(C(=O)[C@@H](NC(=O)c3cc4cc(C(F)(F)P(=O)(O)O)ccc4s3)C(C)(C)C)C2)c2ccc(-c3scnc3C)cc2)C(C)C)on1` [Compound 424, ((2-(((S)-1-((2S,4R)-2-((4-bromophenyl)(methyl)carbamoyl)-4-(((S)-1-((2S,4R)-4-hydroxy-1-((R)-3-methyl-2-(3-methylisoxazol-5-yl)butanoyl)pyrrolidin-2-yl)-3-(4-(4-methylthiazol-5-yl)phenyl)-1,5,16-trioxo-9,12-dioxa-2,6,15-triazaheptadecan-17-yl)oxy)pyrrolidin-1-yl)-3,3-dimethyl-1-oxobutan-2-yl)carbamoyl)benzo[b]thiophen-5-yl)difluoromethyl)phosphonic acid], the DC50 under setting [1] was greater than 10 µM.

As for `Cc1ncsc1-c1ccc([C@H](C)NC(=O)[C@@H]2C[C@@H](O)CN2C(=O)[C@H](NC(=O)CNC(=O)CO[C@H]2C[C@@H](C(=O)N3CCO[C@H](c4ccccc4)C3)N(C(=O)[C@@H](NC(=O)c3cc4cc(C(F)(F)P(=O)(O)O)ccc4s3)C(C)(C)C)C2)C(C)(C)C)cc1` [Compound 425, (difluoro(2-(((S)-1-((2S,4S)-4-(2-((2-(((R)-1-((2S,4R)-4-hydroxy-2-(((S)-1-(4-(4-methylthiazol-5-yl)phenyl)ethyl)carbamoyl)pyrrolidin-1-yl)-3,3-dimethyl-1-oxobutan-2-yl)amino)-2-oxoethyl)amino)-2-oxoethoxy)-2-((R)-2-phenylmorpholine-4-carbonyl)pyrrolidin-1-yl)-3,3-dimethyl-1-oxobutan-2-yl)carbamoyl)benzo[b]thiophen-5-yl)methyl)phosphonic acid], the DC50 by setting is: under setting [2], greater than 10 µM; under setting [1], greater than 10 µM.

Consider `Cc1ncsc1-c1ccc([C@H](C)NC(=O)[C@@H]2C[C@@H](O)CN2C(=O)[C@@H](NC(=O)CCNC(=O)CO[C@H]2C[C@@H](C(=O)N3CCO[C@H](c4ccccc4)C3)N(C(=O)[C@@H](NC(=O)c3cc4cc(C(F)(F)P(=O)(O)O)ccc4s3)C(C)(C)C)C2)C(C)(C)C)cc1` [Compound 426, (difluoro(2-(((S)-1-((2S,4S)-4-(2-((3-(((S)-1-((2S,4R)-4-hydroxy-2-(((S)-1-(4-(4-methylthiazol-5-yl)phenyl)ethyl)carbamoyl)pyrrolidin-1-yl)-3,3-dimethyl-1-oxobutan-2-yl)amino)-3-oxopropyl)amino)-2-oxoethoxy)-2-((R)-2-phenylmorpholine-4-carbonyl)pyrrolidin-1-yl)-3,3-dimethyl-1-oxobutan-2-yl)carbamoyl)benzo[b]thiophen-5-yl)methyl)phosphonic acid], for which the DC50 under setting [2] is greater than 10 µM and the 50% degradation concentration (DC50) under setting [1] was greater than 10 µM.

Consider `Cc1ncsc1-c1ccc([C@H](C)NC(=O)[C@@H]2C[C@@H](O)CN2C(=O)[C@@H](NC(=O)CCCNC(=O)CO[C@H]2C[C@@H](C(=O)N3CCO[C@H](c4ccccc4)C3)N(C(=O)[C@@H](NC(=O)c3cc4cc(C(F)(F)P(=O)(O)O)ccc4s3)C(C)(C)C)C2)C(C)(C)C)cc1` [Compound 427, (difluoro(2-(((S)-1-((2S,4S)-4-(2-((4-(((S)-1-((2S,4R)-4-hydroxy-2-(((S)-1-(4-(4-methylthiazol-5-yl)phenyl)ethyl)carbamoyl)pyrrolidin-1-yl)-3,3-dimethyl-1-oxobutan-2-yl)amino)-4-oxobutyl)amino)-2-oxoethoxy)-2-((R)-2-phenylmorpholine-4-carbonyl)pyrrolidin-1-yl)-3,3-dimethyl-1-oxobutan-2-yl)carbamoyl)benzo[b]thiophen-5-yl)methyl)phosphonic acid], for which the DC50 is greater than 10 µM under setting [2] and greater than 10 µM under setting [1].

Turning to `Cc1ncsc1-c1ccc([C@H](C)NC(=O)[C@@H]2C[C@@H](O)CN2C(=O)[C@@H](NC(=O)CCCCNC(=O)CO[C@H]2C[C@@H](C(=O)N3CCO[C@H](c4ccccc4)C3)N(C(=O)[C@@H](NC(=O)c3cc4cc(C(F)(F)P(=O)(O)O)ccc4s3)C(C)(C)C)C2)C(C)(C)C)cc1` [Compound 428, (difluoro(2-(((S)-1-((2S,4S)-4-(2-((5-(((S)-1-((2S,4R)-4-hydroxy-2-(((S)-1-(4-(4-methylthiazol-5-yl)phenyl)ethyl)carbamoyl)pyrrolidin-1-yl)-3,3-dimethyl-1-oxobutan-2-yl)amino)-5-oxopentyl)amino)-2-oxoethoxy)-2-((R)-2-phenylmorpholine-4-carbonyl)pyrrolidin-1-yl)-3,3-dimethyl-1-oxobutan-2-yl)carbamoyl)benzo[b]thiophen-5-yl)methyl)phosphonic acid], the half-maximal degradation concentration (DC50) by setting is: under setting [2], greater than 10 µM; under setting [1], greater than 10 µM.

Take `Cc1ncsc1-c1ccc([C@H](C)NC(=O)[C@@H]2C[C@@H](O)CN2C(=O)[C@@H](NC(=O)CCCCCNC(=O)CO[C@H]2C[C@@H](C(=O)N3CCO[C@H](c4ccccc4)C3)N(C(=O)[C@@H](NC(=O)c3cc4cc(C(F)(F)P(=O)(O)O)ccc4s3)C(C)(C)C)C2)C(C)(C)C)cc1` [Compound 429, (difluoro(2-(((S)-1-((2S,4S)-4-(2-((6-(((S)-1-((2S,4R)-4-hydroxy-2-(((S)-1-(4-(4-methylthiazol-5-yl)phenyl)ethyl)carbamoyl)pyrrolidin-1-yl)-3,3-dimethyl-1-oxobutan-2-yl)amino)-6-oxohexyl)amino)-2-oxoethoxy)-2-((R)-2-phenylmorpholine-4-carbonyl)pyrrolidin-1-yl)-3,3-dimethyl-1-oxobutan-2-yl)carbamoyl)benzo[b]thiophen-5-yl)methyl)phosphonic acid]: the DC50 was greater than 10 µM under setting [2] and greater than 10 µM under setting [1].

The record behind these values is patent publication US20230295197A1, “STAT5 and STAT6 Degraders and Uses Thereof” (REGENTS OF THE UNIVERSITY OF MICHICAN, priority 2022, published 2023).
